This is an account of results in patent publication US5939560A, “Inhibitors of DP-mediated processes, compositions and therapeutic methods thereof” (Ferring B.V., priority 1993, dated 1999).

This assay concerns the target pure human DP-IV (Homo sapiens, UniProt P27487). The experiment in a line: Inhibition of pure human DP-IV in vitro, fluorescent substrate Ala-Pro-AFC, Ki from Dixon plots. The method, then: All compounds were tested in vitro against pure human DP-IV (purchased from M & E, Copenhagen, Denmark). […] Ki values were determined using Dixon plots.

Like-named read-outs stand apart in the source and are kept apart here.

Chain of pure human DP-IV (P27487 whole entry): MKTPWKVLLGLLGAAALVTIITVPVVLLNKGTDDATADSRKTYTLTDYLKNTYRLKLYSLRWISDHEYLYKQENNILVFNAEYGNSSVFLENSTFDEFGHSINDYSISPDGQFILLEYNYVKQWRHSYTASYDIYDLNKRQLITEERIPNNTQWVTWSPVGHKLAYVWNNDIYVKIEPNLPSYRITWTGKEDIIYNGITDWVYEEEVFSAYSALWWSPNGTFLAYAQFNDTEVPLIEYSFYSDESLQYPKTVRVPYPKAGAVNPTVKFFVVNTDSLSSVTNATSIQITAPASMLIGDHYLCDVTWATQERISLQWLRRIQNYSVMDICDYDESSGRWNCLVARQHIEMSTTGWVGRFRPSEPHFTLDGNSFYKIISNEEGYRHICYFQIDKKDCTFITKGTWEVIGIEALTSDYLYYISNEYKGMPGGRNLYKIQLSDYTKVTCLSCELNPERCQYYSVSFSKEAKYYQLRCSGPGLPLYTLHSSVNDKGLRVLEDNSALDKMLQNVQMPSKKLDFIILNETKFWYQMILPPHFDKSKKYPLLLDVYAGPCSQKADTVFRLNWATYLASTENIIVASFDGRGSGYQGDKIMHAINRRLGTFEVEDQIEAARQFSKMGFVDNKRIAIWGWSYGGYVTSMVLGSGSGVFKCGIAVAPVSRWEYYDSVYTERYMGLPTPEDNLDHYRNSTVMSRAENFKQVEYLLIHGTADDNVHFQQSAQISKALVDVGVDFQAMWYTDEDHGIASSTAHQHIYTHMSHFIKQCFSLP

Regarding `CCCCCCO[C@H](C)[C@H](N)C(=O)N1CCCC1` [compound 143, H-Thr[(CH2)5 CH3]pyrrolidide], the Ki was determined as 940 nM.

For the compound `N#C[C@@H]1CCCN1C(=O)[C@@H](N)CCCCNC(=O)CCCCCCCN` [compound 136], the inhibitory constant (Ki) was found to be 17 nM. On the same count and under the same terms, to `CC1(C)C2CC3OB(C4CCCN4C(=O)C4CC=CCC4N)OC3(C)C1C2` (centres unmarked) [compound 44] belongs 2 nM; to `N[C@@H](CCC(=O)NCCCCCC(=O)OCc1ccccc1)C(=O)N1CCCC1` [compound 59], 150 nM.

Turning to `N[C@@H](CCC(=O)NCCCCCCC(=O)NCCCCCC(=O)O)C(=O)N1CCCC1` [compound 66], the Ki turned out to be 180 nM. `N#C[C@@H]1CCCN1C(=O)[C@H]1CC=CC[C@@H]1N` [compound 35] gave a Ki of 37 nM.

In turn, `N#C[C@@H]1CSCN1C(=O)[C@@H](N)C1CCCC1` [compound 23] showed a Ki of 0.5 nM. On to `N#C[C@@H]1CCCN1C(=O)[C@@H](N)CCC(=O)NCCCCCC(=O)OCc1ccccc1` [compound 97], for which the Ki turned out to be 0.5 nM.

The compound `N[C@@H](CCCCNC(=O)CCCNS(=O)(=O)c1c(F)c(F)c(F)c(F)c1F)C(=O)N1CCCC1` [compound 110, H-Lys[CO(CH2)3 NHSO2 Pfp]Prl] displayed a Ki of 250 nM.

In the case of `CC[C@H](C)[C@H](N)/C=C1\CCC[C@H]1C#N` [compound 150], the Ki (read-out: Ki against DP-IV, pure human DP-IV, pH 7.8, substrate Ala-Pro-AFC, Dixon plots) was determined as 1700 nM. In the case of `N[C@H]1CCCC[C@@H]1C(=O)N1CCC[C@H]1C=O` [compound 38], the Ki turned out to be 9.8 nM.

Usually Ki stands for the dissociation constant of the complex between target and ligand, obtained from inhibition or displacement.
